{"source": "paper PMC10593608", "about": "“The catalytic role of glutathione transferases in heterologous anthocyanin biosynthesis” (Nature Catalysis, 2023)", "molecules": {"B1": {"name": "PtGSTF8 (Populus trichocarpa) (protein)", "chain": "MVVKVYGPAMAVCPQRVMACLLEKGVEFDLVHVDLDSGEQKLPEFLLKQPFGQVPVVEDGDFKLFESRAIIRYYAAKYEDRGPNLLGNTLEEKALVDQWLEIEAHNFNDLVFNIVFQVVILPRIGQQGDSELVRTYEEKLEKVLDVYEQRLSKSKYLAGDSFTLADLSHLPATRYLVNEAGLGHLVKDRKKLNAWWEDISSRPAWKKLINLAGF", "notes": "full length, expressed in E. coli from pET-28b-based pANT35, GSTrap purified, apo (GSH removed with DTT)"}}, "key": {"AtTT19 [1]": {"biological_target": "T1, AtTT19 (Arabidopsis thaliana, UniProt Q9FE46)", "T1 construct": "gene GSTF12; expressed in E. coli from pET-28b-based plasmid, clarified lysate", "T1 sequence (Q9FE46 1-214)": "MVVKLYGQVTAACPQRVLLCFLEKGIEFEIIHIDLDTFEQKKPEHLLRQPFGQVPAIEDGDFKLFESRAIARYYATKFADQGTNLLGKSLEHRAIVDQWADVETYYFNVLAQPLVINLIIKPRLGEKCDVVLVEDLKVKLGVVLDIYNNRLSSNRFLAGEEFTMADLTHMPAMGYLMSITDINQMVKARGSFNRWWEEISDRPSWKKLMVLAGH", "assay": "cyanidin formation by clarified E. coli lysate expressing the GST", "assay_type": "biochemical", "settings": "20 μM GSH, 100 mM MOPSO pH 6.2, 30 °C"}, "AtTT19 [2]": {"biological_target": "T1, AtTT19", "assay": "GSH-transferase assay, A340nm, clarified E. coli lysate", "assay_type": "biochemical", "settings": "1 mM CDNB, 1 mM GSH, 50 mM Tris pH 7.5, 30 °C"}, "PhAN9": {"biological_target": "T2, PhAN9 (Petunia x hybrida, UniProt O24261)", "T2 construct": "expressed in E. coli from pET-28b-based plasmid, clarified lysate", "T2 sequence (O24261 1-232)": "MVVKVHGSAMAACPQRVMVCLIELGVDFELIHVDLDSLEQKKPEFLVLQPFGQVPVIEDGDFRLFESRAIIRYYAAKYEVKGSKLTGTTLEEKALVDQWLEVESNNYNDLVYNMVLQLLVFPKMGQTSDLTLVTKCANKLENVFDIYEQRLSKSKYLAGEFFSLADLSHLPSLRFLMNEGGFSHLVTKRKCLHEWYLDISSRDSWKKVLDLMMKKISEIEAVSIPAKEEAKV", "assay": "GSH-transferase assay, A340nm, clarified E. coli lysate", "assay_type": "biochemical", "settings": "1 mM CDNB, 1 mM GSH, 50 mM Tris pH 7.5, 30 °C"}, "VvGST2": {"biological_target": "T3, VvGST2 (Vitis vinifera, UniProt A0T2X7)", "T3 construct": "gene GST2; expressed in E. coli from pET-28b-based plasmid, clarified lysate", "T3 sequence (A0T2X7 1-214)": "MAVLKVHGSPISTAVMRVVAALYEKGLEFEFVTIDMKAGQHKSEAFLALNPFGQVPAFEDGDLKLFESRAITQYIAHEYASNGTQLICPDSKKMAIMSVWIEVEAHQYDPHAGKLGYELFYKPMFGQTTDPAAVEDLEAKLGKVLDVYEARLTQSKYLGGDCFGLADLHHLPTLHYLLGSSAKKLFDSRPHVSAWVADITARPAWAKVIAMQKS", "assay": "GSH-transferase assay, A340nm, clarified E. coli lysate", "assay_type": "biochemical", "settings": "1 mM CDNB, 1 mM GSH, 50 mM Tris pH 7.5, 30 °C"}, "AtGSTF2": {"biological_target": "T4, AtGSTF2 (Arabidopsis thaliana, UniProt P46422)", "T4 construct": "gene GSTF2; expressed in E. coli from pET-28b-based plasmid, clarified lysate", "T4 sequence (P46422 1-212)": "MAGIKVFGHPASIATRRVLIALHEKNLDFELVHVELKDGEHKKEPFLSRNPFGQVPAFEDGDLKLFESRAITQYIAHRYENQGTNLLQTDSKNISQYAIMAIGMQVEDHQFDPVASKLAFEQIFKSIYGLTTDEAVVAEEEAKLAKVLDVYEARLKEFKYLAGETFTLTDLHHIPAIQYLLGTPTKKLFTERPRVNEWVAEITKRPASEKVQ", "assay": "GSH-transferase assay, A340nm, clarified E. coli lysate", "assay_type": "biochemical", "settings": "1 mM CDNB, 1 mM GSH, 50 mM Tris pH 7.5, 30 °C"}, "ZmBZ2": {"biological_target": "T5, ZmBZ2 (Zea mays, UniProt P50472)", "T5 construct": "gene BZ2; expressed in E. coli from pET-28b-based plasmid, clarified lysate", "T5 sequence (P50472 1-236)": "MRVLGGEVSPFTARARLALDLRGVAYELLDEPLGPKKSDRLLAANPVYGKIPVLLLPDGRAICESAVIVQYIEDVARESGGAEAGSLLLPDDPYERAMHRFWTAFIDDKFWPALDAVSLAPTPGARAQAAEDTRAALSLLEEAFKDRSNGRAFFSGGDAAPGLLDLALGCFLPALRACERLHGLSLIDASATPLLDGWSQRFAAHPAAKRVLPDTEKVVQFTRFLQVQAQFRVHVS", "assay": "GSH-transferase assay, A340nm, clarified E. coli lysate", "assay_type": "biochemical", "settings": "1 mM CDNB, 1 mM GSH, 50 mM Tris pH 7.5, 30 °C"}, "PtGSTF8": {"biological_target": "T6, PtGSTF8 (Populus trichocarpa, UniProt B9MWW0)", "T6 construct": "gene POPTR_017G138800; full length, expressed in E. coli from pET-28b-based pANT35, GSTrap purified, apo (GSH removed with DTT)", "T6 sequence (B9MWW0 1-214)": "B1 chain", "assay": "X-ray crystal structure, […] Å", "assay_type": "binding", "settings": "ternary complex with GSH; H-site; substrate analogue"}, "[3]": {"substrate": "Oc1cc(O)c2c(c1)O[C@H](c1ccc(O)c(O)c1)C(O)(O)[C@H]2O", "assay": "cyanidin formation at A580nm, 96-well plate, Michaelis-Menten", "assay_type": "biochemical, Populus trichocarpa", "settings": "GSH cofactor, 100 mM MOPSO pH 6.2, 30 °C, ascorbate, Fe(II), ultrafiltered substrate, apparent"}}, "data": [{"molecule": "Oc1cc(O)c2c(c1)O[C@H](c1ccc(O)c(O)c1)C(O)(O)[C@H]2O", "note": "[compound 4]", "values": [{"measurement": "cyanidin formation by clarified E. coli lysate expressing the GST", "setting": "AtTT19 [1]", "result": "arGSTs from maize (ZmBZ2), arabidopsis (AtTT19) and grapevine (VvGST4)"}]}, {"molecule": "O=[N+]([O-])c1ccc(Cl)c([N+](=O)[O-])c1", "note": "[compound 5, 1-chloro-2,4-dinitrobenzene]", "values": [{"measurement": "GSH-transferase assay, A340nm, clarified E. coli lysate", "setting": "AtTT19 [2]", "result": "all investigated GSTs were confirmed to be solubly and functionally produced"}, {"measurement": "GSH-transferase assay, A340nm, clarified E. coli lysate", "setting": "PhAN9", "result": "all investigated GSTs were confirmed to be solubly and functionally produced"}, {"measurement": "GSH-transferase assay, A340nm, clarified E. coli lysate", "setting": "VvGST2", "result": "all investigated GSTs were confirmed to be solubly and functionally produced"}, {"measurement": "GSH-transferase assay, A340nm, clarified E. coli lysate", "setting": "AtGSTF2", "result": "all investigated GSTs were confirmed to be solubly and functionally produced"}, {"measurement": "GSH-transferase assay, A340nm, clarified E. coli lysate", "setting": "ZmBZ2", "result": "all investigated GSTs were confirmed to be solubly and functionally produced"}]}, {"molecule": "Oc1cc(O)c2c(c1)O[C@@H](c1ccc(O)c(O)c1)[C@H](O)C2", "note": "[compound 12, (−)-catechin]", "values": [{"measurement": "X-ray crystal structure, 1.09 Å", "setting": "PtGSTF8", "result": "crystal structure of PtGSTF8 as a ternary complex with GSH and the substrate analogue (−)-catechin"}]}, {"molecule": "B1", "values": [{"measurement": "Km", "setting": "[3]", "result": "147 ± 8", "unit": "µM"}, {"measurement": "kcat", "setting": "[3]", "result": 0.118, "unit": "s⁻¹"}]}]}
